# Measured values as given in patent US20080051387A1, “TETRAHYDROPYRIDO[3,4-D]PYRIMIDINES AND RELATED ANALOGUES” (priority 2006, published 2008).
# Molecular target: T1, chimeric human H3 receptor (Homo sapiens, UniProt Q9Y5N1)
# T1 construct: rat Galpha-i2 (Gnai2, rat); made in house; host or cells: Sf9 insect cells (baculovirus); P2 membranes
# Test: Chimeric human H3 receptor screening GTP binding assay (inhibition of histamine-stimulated GTP-gamma35S binding, Example 8)
# Type: biochemical
# Settings: 1 h; assay described in Example 8; symbol "!" in column headed Ki; read-out: Ki ("!": percent inhibition of agonist-induced GTP-gammaS binding to H3)
# How it was run: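 Sf9 membranes co-expressing chimeric human H3 receptor and heterotrimeric G-protein (35 μg protein) incubated 60 min at room temperature with 4 μM compound, 1 μM histamine and 125 pM GTP-gamma35S in pH 7.4 buffer with 10 μM GDP. Filter-bound radioactivity, nonspecific (10 μM GTP-gammaS) subtracted, reported as % inhibition of histamine signal.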
# T1 sequence (Q9Y5N1 with tags, fused parts or gaps): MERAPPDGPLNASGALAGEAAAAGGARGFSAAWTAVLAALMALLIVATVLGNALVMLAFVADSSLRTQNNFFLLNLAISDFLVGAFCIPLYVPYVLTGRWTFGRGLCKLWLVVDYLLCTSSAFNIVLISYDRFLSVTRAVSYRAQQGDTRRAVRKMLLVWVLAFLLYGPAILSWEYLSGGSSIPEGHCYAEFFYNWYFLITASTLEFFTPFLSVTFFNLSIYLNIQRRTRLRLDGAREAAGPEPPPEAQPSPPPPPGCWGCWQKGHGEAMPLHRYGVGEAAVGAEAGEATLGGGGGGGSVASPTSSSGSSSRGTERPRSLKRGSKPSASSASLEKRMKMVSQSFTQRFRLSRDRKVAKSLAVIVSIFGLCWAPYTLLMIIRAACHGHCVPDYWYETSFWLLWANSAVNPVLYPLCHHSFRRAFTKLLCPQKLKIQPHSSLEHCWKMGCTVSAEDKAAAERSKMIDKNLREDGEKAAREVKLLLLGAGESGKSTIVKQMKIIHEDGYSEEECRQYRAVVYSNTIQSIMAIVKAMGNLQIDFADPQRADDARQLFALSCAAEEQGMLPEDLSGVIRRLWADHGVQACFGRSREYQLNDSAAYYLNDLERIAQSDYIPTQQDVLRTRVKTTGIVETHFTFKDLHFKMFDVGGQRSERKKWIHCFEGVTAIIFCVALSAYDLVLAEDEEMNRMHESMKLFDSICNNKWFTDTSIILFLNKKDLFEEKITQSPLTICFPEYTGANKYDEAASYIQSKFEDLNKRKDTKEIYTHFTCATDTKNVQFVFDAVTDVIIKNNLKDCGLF
row,SMILES,inhibition at 4 µM [%]
1,"Cc1cc(C(=O)N2CCc3cnc(N4CCN(C5CCC5)CC4)nc3CC2)n(C(C)(C)C)n1 [Compound 505, 7-[(1-tert-butyl-3-methyl-1H-pyrazol-5-yl)carbonyl]-2-(4-cyclobutylpiperazin-1-yl)-6,7,8,9-tetrahydro-5H-pyrimido[4,5-d]azepine]",≥ 90
2,"Cn1nc(C(C)(C)C)cc1C(=O)N1CCc2cnc(N3CCN(C4CCC4)CC3)nc2CC1 [Compound 506, 7-[(3-tert-butyl-1-methyl-1H-pyrazol-5-yl)carbonyl]-2-(4-cyclobutylpiperazin-1-yl)-6,7,8,9-tetrahydro-5H-pyrimido[4,5-d]azepine]",≥ 90
3,"O=C(c1cnn(-c2ccc(Cl)cc2)c1C(F)(F)F)N1CCc2cnc(N3CCN(C4CCC4)CC3)nc2CC1 [Compound 507, 7-{[1-(4-chlorophenyl)-5-(trifluoromethyl)-1H-pyrazol-4-yl]carbonyl}-2-(4-cyclobutylpiperazin-1-yl)-6,7,8,9-tetrahydro-5H-pyrimido[4,5-d]azepine]",≥ 90
4,"CCn1nc(C)c(Br)c1C(=O)N1CCc2cnc(N3CCN(C4CCC4)CC3)nc2CC1 [Compound 509, 7-[(4-bromo-1-ethyl-3-methyl-1H-pyrazol-5-yl)carbonyl]-2-(4-cyclobutylpiperazin-1-yl)-6,7,8,9-tetrahydro-5H-pyrimido[4,5-d]azepine]",≥ 90
5,"O=C(c1c(-c2ccccc2)nnc2ccccc12)N1CCc2cnc(N3CCN(C4CCC4)CC3)nc2CC1 [Compound 510, 2-(4-cyclobutylpiperazin-1-yl)-7-[(3-phenylcinnolin-4-yl)carbonyl]-6,7,8,9-tetrahydro-5H-pyrimido[4,5-d]azepine]",≥ 90
6,"O=C(c1cnn(-c2ccccc2)c1C(F)(F)F)N1CCc2cnc(N3CCN(C4CCC4)CC3)nc2CC1 [Compound 511, 2-(4-cyclobutylpiperazin-1-yl)-7-{[1-phenyl-5-(trifluormethyl)-1H-pyrazol-4-yl]carbonyl}-6,7,8,9-tetrahydro-5H-pyrimido[4,5-d]azepine]",≥ 90
7,"O=C(Cc1cccc(F)c1)N1CCc2cnc(N3CCN(C4CCC4)CC3)nc2CC1 [Compound 513, 2-(4-cyclobutylpiperazin-1-yl)-7-[(3-fluorophenyl)acetyl]-6,7,8,9-tetrahydro-5H-pyrimido[4,5-d]azepine]",≥ 90
8,"O=C(Cc1ccc(F)cc1)N1CCc2cnc(N3CCN(C4CCC4)CC3)nc2CC1 [Compound 516, 2-(4-cyclobutylpiperazin-1-yl)-7-[(4-fluorophenyl)acetyl]-6,7,8,9-tetrahydro-5H-pyrimido[4,5-d]azepine]",≥ 90
9,"O=C(Cc1ccccc1F)N1CCc2cnc(N3CCN(C4CCC4)CC3)nc2CC1 [Compound 517, 2-(4-cyclobutylpiperazin-1-yl)-7-[(2-fluorophenyl)acetyl]-6,7,8,9-tetrahydro-5H-pyrimido[4,5-d]azepine]",≥ 90
10,"O=C(Cc1ccc(-c2ccccc2)cc1)N1CCc2cnc(N3CCN(C4CCC4)CC3)nc2CC1 [Compound 518, 7-(biphenyl-4-ylacetyl)-2-(4-cyclobutylpiperazin-1-yl)-6,7,8,9-tetrahydro-5H-pyrimido[4,5-d]azepine]",≥ 90
11,"CSc1ccc(CC(=O)N2CCc3cnc(N4CCN(C5CCC5)CC4)nc3CC2)cc1 [Compound 519, 2-(4-cyclobutylpiperazin-1-yl)-7-{[4-(methylthio)phenyl]acetyl}-6,7,8,9-tetrahydro-5H-pyrimido[4,5-d]azepine]",≥ 90
12,"O=C(Cc1ccc(OCc2ccccc2)cc1)N1CCc2cnc(N3CCN(C4CCC4)CC3)nc2CC1 [Compound 520, 7-{[4-(benzyloxy)phenyl]acetyl}-2-(4-cyclobutylpiperazin-1-yl)-6,7,8,9-tetrahydro-5H-pyrimido[4,5-d]azepine]",≥ 90
13,"CC(C)c1ccc(CC(=O)N2CCc3cnc(N4CCN(C5CCC5)CC4)nc3CC2)cc1 [Compound 521, 2-(4-cyclobutylpiperazin-1-yl)-7-[(4-isopropylphenyl)acetyl]-6,7,8,9-tetrahydro-5H-pyrimido[4,5-d]azepine]",≥ 90
14,"Cc1onc(-c2c(Cl)cccc2Cl)c1C(=O)N1CCc2cnc(N3CCN(C4CCC4)CC3)nc2CC1 [Compound 523, 2-(4-cyclobutylpiperazin-1-yl)-7-{[3-(2,6-dichlorophenyl)-5-methylisoxazol-4-yl]carbonyl}-6,7,8,9-tetrahydro-5H-pyrimido[4,5-d]azepine]",≥ 90
15,"Cc1nc(-c2ccc(C(F)(F)F)cc2)sc1C(=O)N1CCc2cnc(N3CCN(C4CCC4)CC3)nc2CC1 [Compound 524, 2-(4-cyclobutylpiperazin-1-yl)-7-({4-methyl-2-[4-(trifluoromethyl)phenyl]-1,3-thiazol-5-yl}carbonyl)-6,7,8,9-tetrahydro-5H-pyrimido[4,5-d]azepine]",≥ 90
16,"O=C(c1nsc(Cl)c1Cl)N1CCc2cnc(N3CCN(C4CCC4)CC3)nc2CC1 [Compound 526, 2-(4-cyclobutylpiperazin-1-yl)-7-[(4,5-dichloroisothiazol-3-yl)carbonyl]-6,7,8,9-tetrahydro-5H-pyrimido[4,5-d]azepine]",≥ 90
17,"O=C(c1csnn1)N1CCc2cnc(N3CCN(C4CCC4)CC3)nc2CC1 [Compound 527, 2-(4-cyclobutylpiperazin-1-yl)-7-(1,2,3-thiadiazol-4-ylcarbonyl)-6,7,8,9-tetrahydro-5H-pyrimido[4,5-d]azepine]",≥ 90
18,"Cc1nnsc1C(=O)N1CCc2cnc(N3CCN(C4CCC4)CC3)nc2CC1 [Compound 528, 2-(4-cyclobutylpiperazin-1-yl)-7-[(4-methyl-1,2,3-thiadiazol-5-yl)carbonyl]-6,7,8,9-tetrahydro-5H-pyrimido[4,5-d]azepine]",≥ 90

# Other lines, results leading:
row,inhibition at 4 µM [%],SMILES
1,≥ 90,"COc1ccc(OC)c(Sc2ncccc2C(=O)N2CCc3cnc(N4CCN(C5CCC5)CC4)nc3CC2)c1 [Compound 500, 2-(4-cyclobutylpiperazin-1-yl)-7-({2-[(2,5-dimethoxyphenyl)thio]pyridin-3-yl}carbonyl)-6,7,8,9-tetrahydro-5H-pyrimido[4,5-d]azepine]"
2,≥ 90,"CSc1ncccc1C(=O)N1CCc2cnc(N3CCN(C4CCC4)CC3)nc2CC1 [Compound 501, 2-(4-cyclobutylpiperazin-1-yl)-7-{[2-(methylthio)pyridin-3-yl]carbonyl}-6,7,8,9-tetrahydro-5H-pyrimido[4,5-d]azepine]"
3,≥ 90,"CCSc1ncccc1C(=O)N1CCc2cnc(N3CCN(C4CCC4)CC3)nc2CC1 [Compound 502, 2-(4-cyclobutylpiperazin-1-yl)-7-{[2-(ethylthio)pyridin-3-yl]carbonyl}-6,7,8,9-tetrahydro-5H-pyrimido[4,5-d]azepine]"
4,≥ 90,"Cc1ccc(Oc2ncccc2C(=O)N2CCc3cnc(N4CCN(C5CCC5)CC4)nc3CC2)c(C)c1 [Compound 503, 2-(4-cyclobutylpiperazin-1-yl)-7-{[2-(2,4-dimethylphenoxy)pyridin-3-yl]carbonyl}-6,7,8,9-tetrahydro-5H-pyrimido[4,5-d]azepine]"
5,≥ 90,"Cc1c(C(=O)N2CCc3cnc(N4CCN(C5CCC5)CC4)nc3CC2)cnn1-c1ccccc1 [Compound 504, 2-(4-cyclobutylpiperazin-1-yl)-7-[(5-methyl-1-phenyl-1H-pyrazol-4-yl)carbonyl]-6,7,8,9-tetrahydro-5H-pyrimido[4,5-d]azepine]"
6,≥ 90,"CCCc1c(C(=O)N2CCc3cnc(N4CCN(C5CCC5)CC4)nc3CC2)cnn1-c1ccccc1 [Compound 508, 2-(4-cyclobutylpiperazin-1-yl)-7-[(1-phenyl-5-propyl-1H-pyrazol-4-yl)carbonyl]-6,7,8,9-tetrahydro-5H-pyrimido[4,5-d]azepine]"
7,≥ 90,"CCCc1c(C(=O)N2CCc3cnc(N4CCN(C5CCC5)CC4)nc3CC2)cnn1-c1ccc(Cl)cc1 [Compound 512, 7-{[1-(4-chlorophenyl)-5-propyl-1H-pyrazol-4-yl]carbonyl}-2-(4-cyclobutylpiperazin-1-yl)-6,7,8,9-tetrahydro-5H-pyrimido[4,5-d]azepine]"
8,≥ 90,"Cc1cccc(CC(=O)N2CCc3cnc(N4CCN(C5CCC5)CC4)nc3CC2)c1 [Compound 514, 2-(4-cyclobutylpiperazin-1-yl)-7-[(3-methylphenyl)acetyl]-6,7,8,9-tetrahydro-5H-pyrimido[4,5-d]azepine]"
9,≥ 90,"Cc1ccc(CC(=O)N2CCc3cnc(N4CCN(C5CCC5)CC4)nc3CC2)cc1 [Compound 515, 2-(4-cyclobutylpiperazin-1-yl)-7-[(4-methylphenyl)acetyl]-6,7,8,9-tetrahydro-5H-pyrimido[4,5-d]azepine]"
10,≥ 90,"O=C(Cc1ccc2ccccc2c1)N1CCc2cnc(N3CCN(C4CCC4)CC3)nc2CC1 [Compound 522, 2-(4-cyclobutylpiperazin-1-yl)-7-(2-naphthylacetyl)-6,7,8,9-tetrahydro-5H-pyrimido[4,5-d]azepine]"
11,≥ 90,"Cc1nc(C)c(C(=O)N2CCc3cnc(N4CCN(C5CCC5)CC4)nc3CC2)s1 [Compound 525, 2-(4-cyclobutylpiperazin-1-yl)-7-[(2,4-dimethyl-1,3-thiazol-5-yl)carbonyl]-6,7,8,9-tetrahydro-5H-pyrimido[4,5-d]azepine]"
12,≥ 90,"O=C(c1csc(-c2cccnc2)n1)N1CCc2cnc(N3CCN(C4CCC4)CC3)nc2CC1 [Compound 529, 2-(4-cyclobutylpiperazin-1-yl)-7-[(2-pyridin-3-yl-1,3-thiazol-4-yl)carbonyl]-6,7,8,9-tetrahydro-5H-pyrimido[4,5-d]azepine]"
13,≥ 90,"O=C(c1csc(-c2ccncc2)n1)N1CCc2cnc(N3CCN(C4CCC4)CC3)nc2CC1 [Compound 530, 2-(4-cyclobutylpiperazin-1-yl)-7-[(2-pyridin-4-yl-1,3-thiazol-4-yl)carbonyl]-6,7,8,9-tetrahydro-5H-pyrimido[4,5-d]azepine]"
